Results from patent US8686146B2, “Azaindenoisoquinoline topoisomerase I inhibitors” (Purdue Research Foundation, priority 2012, dated 2014).
Counter-ions that a name gives are not always drawn. Like-named read-outs stand apart in the source and are kept apart here.

Columns and labels:
HOP-62 = experiment: NCI screen antiproliferative activity, lung HOP-62
Protocol: (§1) Cells of approximately 60 different human cancer cell lines were incubated for 48 h with five 10-fold dilutions of the tested compounds starting from 100 μM and then treated with sulforhodamine B dye. The ratios of recorded optical densities relative to that of the control were plotted as a function of the common logarithm of the tested compound concentrations. […] The GI50 and the mean graph midpoint (MGM) values of the prepared indenoisoquinolines in selected cell lines are presented in Table I.
(§2) The antiproliferative activity of each compound was determined in the National Cancer Institute (NCI) screen as described above. Cells of approximately 60 different human cancer cell lines were incubated for 48 h with five 10-fold dilutions of the test compounds starting from 100 μM, and then treated with sulforhodamine B dye. The ratios of recorded optical densities relative to those of the control were plotted as a function of the common logarithm of the tested compound concentrations. […] The GI50 and the mean graph midpoint (MGM) values of the prepared (aza)indeno-isoquinolines in selected cell lines are presented in Table 2.

SN12C = experiment: NCI screen antiproliferative activity, renal SN12C
Protocol: as §1, §2

OVCAR-3 = experiment: NCI screen antiproliferative activity, ovarian OVCAR-3
Protocol: as §1, §2

MCF7 = experiment: NCI screen antiproliferative activity, breast MCF7
Protocol: as §1, §2

[1] = system: approximately 60 different human cancer cell lines; experiment: NCI screen, mean graph midpoint over all cell lines; format: cell-based; conditions: all human cancer cell lines successfully tested, 48 h
Protocol: as §1, §2

human recombinant Top1 = target: T1, human recombinant Top1 (Homo sapiens, UniProt P11387); experiment: Top1-mediated DNA cleavage assay; format: biochemical; conditions: semiquantitative, relative to compounds 1 and 2
T1 construct: made in house
T1 sequence (P11387 1-765): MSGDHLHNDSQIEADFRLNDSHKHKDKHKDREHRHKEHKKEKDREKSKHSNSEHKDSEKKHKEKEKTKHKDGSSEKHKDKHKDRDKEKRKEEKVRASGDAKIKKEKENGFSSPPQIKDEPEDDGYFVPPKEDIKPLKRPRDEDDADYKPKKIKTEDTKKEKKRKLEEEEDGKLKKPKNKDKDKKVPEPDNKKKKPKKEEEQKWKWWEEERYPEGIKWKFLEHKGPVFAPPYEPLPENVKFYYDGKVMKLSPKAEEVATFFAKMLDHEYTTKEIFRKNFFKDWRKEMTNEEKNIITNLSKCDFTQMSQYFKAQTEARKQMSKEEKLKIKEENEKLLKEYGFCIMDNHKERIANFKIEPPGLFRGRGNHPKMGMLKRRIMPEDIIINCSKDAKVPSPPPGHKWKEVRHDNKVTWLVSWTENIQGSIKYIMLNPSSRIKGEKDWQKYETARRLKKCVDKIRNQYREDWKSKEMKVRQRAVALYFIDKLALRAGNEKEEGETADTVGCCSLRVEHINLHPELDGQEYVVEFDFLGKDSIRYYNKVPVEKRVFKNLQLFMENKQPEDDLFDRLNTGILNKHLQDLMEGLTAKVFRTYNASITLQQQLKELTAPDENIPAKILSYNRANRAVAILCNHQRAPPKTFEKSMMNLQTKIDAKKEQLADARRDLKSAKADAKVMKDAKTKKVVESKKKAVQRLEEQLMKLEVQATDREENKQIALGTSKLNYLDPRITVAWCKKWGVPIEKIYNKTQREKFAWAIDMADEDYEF
Protocol: Unincorporated [^32P]dGTP was removed using mini Quick […] columns (Roche, Indianapolis, Ind.), and the eluate containing the […] DNA substrate was collected. […] Aliquots of each reaction mixture were subjected to 20% denaturing PAGE. […] The DNA fragments were separated on a denaturing gel. […] All of the target compounds were tested for induction of DNA damage in Top1-mediated DNA cleavage assays, as described above.

SF-539 = experiment: NCI screen antiproliferative activity, CNS SF-539
Protocol: as §1, §2

HCT-116 = experiment: NCI screen antiproliferative activity, colon HCT-116
Protocol: as §1, §2

UACC-62 = experiment: NCI screen antiproliferative activity, melanoma UACC-62
Protocol: as §1, §2

DU-145 = experiment: NCI screen antiproliferative activity, prostate DU-145
Protocol: as §1, §2

Structure (SMILES)	Top1 Cleavage (human recombinant Top1; Table 2)	GI50 (HOP-62) [nM]	GI50 (SN12C) [nM]	GI50 (OVCAR-3) [nM]	GI50 (MCF7) [nM]	MGM (mean graph midpoint for growth inhibition) ([1]; Table 2) [µM]	GI50 (SF-539) [nM]	GI50 (HCT-116) [nM]	GI50 (UACC-62) [nM]	GI50 (DU-145) [nM]	other results
CN(C)CCCn1c2c(c3ccccc3c1=O)C(=O)c1cccnc1-2 (as salt: hydrochloride) [Compound 18, 7-Aza-5,6-dihydro-6-(3-dimethylaminopropyl)-5,11-dioxo-11H-indeno[1,2-c]-isoquinoline Hydrochloride]	–	–	–	–	–	–	–	–	–	–	melting point: 268 to 270 °C
COc1cnc2c(c1)C(=O)c1c-2n(CCCN(C)C)c(=O)c2cc(OC)c(OC)cc12.Cl [Compound 55, 7-Aza-5,6-dihydro-6-(3-dimethylaminopropyl)-2,3,9-trimethoxy-5,11-dioxo-11H-indeno[1,2-c]isoquinoline Hydrochloride]	+++	920	3600	2900	130	1.8	1100	1500	3900	880	–
COc1cc2c3c(n(CCCN4CCOCC4)c(=O)c2cc1OC)-c1cnccc1C3=O.O=C(O)C(F)(F)F [Compound 118, 8-Aza-5,6-dihydro-6-(3-(4-morpholino)propyl)-2,3-dimethoxy-5,11-dioxo-11H-indeno[1,2-c]isoquinoline Trifluoroacetate]	++	6500	16000	24000	4100	16	40000	2500	48000	24000	–
COc1cc2c3c(n(CCCN(C)C)c(=O)c2cc1OC)-c1ncccc1C3=O (as salt: hydrochloride) [Compound 19, 7-Aza-5,6-dihydro-6-(3-dimethylaminopropyl)-2,3-dimethoxy-5,11-dioxo-11H-indeno[1,2-c]isoquinoline Hydrochloride]	–	–	–	–	–	–	–	–	–	–	melting point: 278 to 281 °C (dec.)
COc1cc2c3c(n(CCCN(C)C)c(=O)c2cc1OC)-c1ncccc1C3=O [Compound 19, 7-Aza-5,6-dihydro-6-(3-dimethylaminopropyl)-2,3-dimethoxy-5,11-dioxo-11H-indeno[1,2-c]isoquinoline Hydrochloride]	+++	–	–	–	–	4.5	–	–	–	–	GI50 (HOP-62; Homo sapiens, HOP-62, 48 h, read-out: cytotoxicity (GI50) lung HOP-62, 48 h, sulforhodamine B, single determination, Table 1): 3390 nM; GI50 (HOP-62; Homo sapiens, HOP-62, 48 h, read-out: cytotoxicity (GI50) lung HOP-62, 48 h, sulforhodamine B, single determination, Table 2): 3400 nM; GI50 (SN12C; Homo sapiens, SN12C, 48 h, read-out: cytotoxicity (GI50) renal SN12C, 48 h, sulforhodamine B, single determination, Table 1): 3160 nM; GI50 (SN12C; Homo sapiens, SN12C, 48 h, read-out: cytotoxicity (GI50) renal SN12C, 48 h, sulforhodamine B, single determination, Table 2): 3200 nM; GI50 (OVCAR-3; Homo sapiens, OVCAR-3, 48 h, read-out: cytotoxicity (GI50) ovarian OVCAR-3, 48 h, sulforhodamine B, single determination, Table 1): 3550 nM; GI50 (OVCAR-3; Homo sapiens, OVCAR-3, 48 h, read-out: cytotoxicity (GI50) ovarian OVCAR-3, 48 h, sulforhodamine B, single determination, Table 2): 3600 nM; GI50 (MCF7; Homo sapiens, MCF7, 48 h, read-out: cytotoxicity (GI50) breast MCF7, 48 h, sulforhodamine B, single determination, Table 1): 440 nM; MGM (mean graph midpoint for growth inhibition) ([1]; Table 1): 4.50 µM; Top1 Cleavage (human recombinant Top1; Table 1): +++; GI50 (SF-539; Homo sapiens, 48 h, read-out: cytotoxicity (GI50) CNS SF-539, 48 h, sulforhodamine B, single determination, Table 2): 4100 nM; GI50 (HCT-116; Homo sapiens, HCT-116, 48 h, read-out: cytotoxicity (GI50) colon HCT-116, 48 h, sulforhodamine B, single determination, Table 1): 1580 nM; GI50 (HCT-116; Homo sapiens, HCT-116, 48 h, read-out: cytotoxicity (GI50) colon HCT-116, 48 h, sulforhodamine B, single determination, Table 2): 1600 nM; GI50 (UACC-62; Homo sapiens, UACC-62, 48 h, read-out: cytotoxicity (GI50) melanoma UACC-62, 48 h, sulforhodamine B, single determination, Table 1): 13200 nM; GI50 (UACC-62; Homo sapiens, UACC-62, 48 h, read-out: cytotoxicity (GI50) melanoma UACC-62, 48 h, sulforhodamine B, single determination, Table 2): 13000 nM; GI50 (DU-145; Homo sapiens, DU-145, 48 h, read-out: cytotoxicity (GI50) prostate DU-145, 48 h, sulforhodamine B, single determination, Table 2): 1700 nM

The next lines start with results.

Top1 Cleavage (human recombinant Top1; Table 2)	Structure (SMILES)	GI50 (HOP-62) [nM]	GI50 (SN12C) [nM]	GI50 (OVCAR-3) [nM]	GI50 (MCF7) [nM]	MGM (mean graph midpoint for growth inhibition) ([1]; Table 2) [µM]	GI50 (SF-539) [nM]	GI50 (HCT-116) [nM]	GI50 (UACC-62) [nM]	GI50 (DU-145) [nM]	other results
++	COc1cnc2c(c1)C(=O)c1c-2n(CCCN2CCOCC2)c(=O)c2cc(OC)c(OC)cc12.Cl [Compound 56, 7-Aza-5,6-dihydro-6-[3-(4-morpholino)propyl]-2,3,9-trimethoxy-5,11-dioxo-11H-indeno[1,2-c]isoquinoline Hydrochloride]	240	340	310	100	0.48	270	330	220	340	–
++	COc1cnc2c(c1)C(=O)c1c-2n(CCCN2CCOCC2)c(=O)c2ccccc12 [Compound 64, 7-Aza-5,6-dihydro-6-(3-(4-morpholino)propyl)-9-methoxy-5,11-dioxo-11H-indeno[1,2-c]isoquinoline]	4100	2600	6300	600	3.0	3500	2500	1700	3600	–
+++	COc1cnc2c(c1)C(=O)c1c-2n(CCCN(C)C)c(=O)c2cc([N+](=O)[O-])ccc12 [Compound 65, 7-Aza-5,6-dihydro-6-(3-dimethylaminopropyl)-9-methoxy-3-nitro-5,11-dioxo-11H-indeno[1,2-c]isoquinoline]	54	57	140	24	0.11	78	74	52	51	–
